Experimental data reported in article PMC6467784 (Journal of medicinal chemistry, 2019).
Like-named read-outs stand apart in the source and are kept apart here.

Legend:
CACO-2 cells = assay: CACO-2 permeability and efflux; assay type: in vitro ADME
A1AR, A3AR [1] = assay: Hypothermia in A1AR, A3AR and A1AR/A3AR deficient mice; assay type: in vivo, mouse; settings: 3 mg/kg ip.
2C19 CYP isozyme = 2C19 CYP isozyme (Homo sapiens, UniProt P33261); assay: CYP 2C19 inhibition; assay type: in vitro ADME
hCYP P450 3A4 = hCYP P450 3A4 (Homo sapiens, UniProt P08684); assay: CYP 3A4 inhibition; assay type: in vitro ADME
Mouse liver microsomes = assay type: in vitro ADME
mice = assay: Hypothermia after intracerebroventricular infusion; assay type: in vivo, mouse
hA2BAR = molecular target: T1, hA2BAR (Homo sapiens, UniProt P29275); assay: hA2BAR radioligand binding using [3H]54
T1 sequence (P29275 1-332): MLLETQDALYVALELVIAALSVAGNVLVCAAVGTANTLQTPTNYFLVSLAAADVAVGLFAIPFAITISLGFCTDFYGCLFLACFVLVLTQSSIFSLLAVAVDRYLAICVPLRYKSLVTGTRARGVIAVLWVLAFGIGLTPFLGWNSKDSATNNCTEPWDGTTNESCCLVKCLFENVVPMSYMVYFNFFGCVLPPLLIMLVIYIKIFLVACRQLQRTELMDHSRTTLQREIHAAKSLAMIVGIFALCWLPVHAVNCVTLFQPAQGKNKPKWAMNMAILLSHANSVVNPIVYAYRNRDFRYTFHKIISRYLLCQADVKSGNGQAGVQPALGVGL

[2] = Stability in simulated gastric fluid; assay type: in vitro ADME
[3] = Stability in simulated intestinal fluid; assay type: in vitro ADME
wild-type C57BL/6J mice [4] = assay: Body temperature and locomotor activity by telemetry after ip. dosing; assay type: in vivo, mouse
1A2 CYP isozyme = 1A2 CYP isozyme (Homo sapiens, UniProt P05177); assay: CYP 1A2 inhibition; assay type: in vitro ADME
Rat liver microsomes = assay type: in vitro ADME
[5] = Stability in human plasma; assay type: in vitro ADME; settings: human (h)
hCYP P450 2C9 = hCYP P450 2C9 (Homo sapiens, UniProt P11712); assay: CYP 2C9 inhibition; assay type: in vitro ADME
Human liver microsomes = assay type: in vitro ADME
[6] = Stability in mouse plasma; assay type: in vitro ADME; settings: mouse (m)
[7] = Pharmacokinetics in the male rat; assay type: in vivo; settings: 3 mg/kg p.o.
HEP-G2 hepatocytes = assay: Toxicity in HEP-G2 hepatocytes; assay type: cell-based
Stability in rat plasma = assay type: in vitro ADME
hCYP P450 2D6 = hCYP P450 2D6 (Homo sapiens, UniProt P10635); assay: CYP 2D6 inhibition; assay type: in vitro ADME
σ1 = σ1 (Homo sapiens, UniProt Q99720); assay: PDSP off-target binding, σ1
anesthetized rat = assay: Cardiovascular effects in the anesthetized rat; assay type: in vivo; settings: 3 mg/kg, ip., preliminary
GPCR assays = assay: Broad GPCR screening; assay type: cell-based; settings: at 10 μM; DiscoverX
403 kinases = assay: Kinase screen; assay type: binding; settings: at 10 μM; among 403 kinases
female rhesus monkeys = assay: Tolerability in female rhesus monkeys; assay type: in vivo, rhesus monkey; settings: 1 or 3 mg/kg in a food treat; up to 4 h post-dosing
mouse = settings: 60 mg/kg
[8] = Pharmacokinetics in male cynomolgus monkeys; assay type: in vivo, cynomolgus monkey; settings: one-day observation period
A1AR, A3AR [9] = settings: ref [30]; cited from earlier work
wild-type C57BL/6J mice [10] = settings: 3 mg/kg ip.; average from dosing to 60 min; ref [30]; cited from earlier work
hA3AR = hA3AR (Homo sapiens, UniProt P0DMS8); settings: read-out: A3AR Ki; human (h); ref [1],[17],[23],[30],[32]-[35],[43],[45]; cited from earlier work
hA1AR = molecular target: T2, hA1AR (Homo sapiens, UniProt P30542); settings: read-out: A1AR Ki; human (h); ref [1],[17],[23],[30],[32]-[36],[43]-[45]; cited from earlier work
T2 sequence (P30542 1-326): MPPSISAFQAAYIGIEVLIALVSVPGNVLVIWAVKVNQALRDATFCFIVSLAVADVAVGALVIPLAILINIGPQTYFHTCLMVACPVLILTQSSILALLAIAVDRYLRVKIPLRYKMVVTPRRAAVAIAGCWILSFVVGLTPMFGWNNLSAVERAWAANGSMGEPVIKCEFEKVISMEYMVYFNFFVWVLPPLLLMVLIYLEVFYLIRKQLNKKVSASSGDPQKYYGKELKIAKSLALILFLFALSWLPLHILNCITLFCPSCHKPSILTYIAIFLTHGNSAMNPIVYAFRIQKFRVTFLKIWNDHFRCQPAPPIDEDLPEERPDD

rA2AAR = settings: read-out: A2AAR Ki; rat (r); ref [17],[23],[30],[33],[34],[43],[45]; cited from earlier work
hA2AAR = hA2AAR (Homo sapiens, UniProt P29274); settings: read-out: A2AAR Ki; human (h); ref [1],[17],[23],[30],[32]-[35],[43],[45]; cited from earlier work
[11] = tested on: off-target receptors and transporters; assay: PDSP off-target screen; assay type: binding, human
rA1AR = rA1AR (Rattus norvegicus, UniProt P25099); settings: read-out: A1AR Ki; rat (r); ref [17],[23],[30],[33],[34],[43],[45]; cited from earlier work
mA3AR = mA3AR (Mus musculus, UniProt Q61618); settings: read-out: A3AR Ki; mouse (m); ref [17],[23],[30],[32]-[34],[43],[45]; cited from earlier work
mA1AR = molecular target: T3, mA1AR (Mus musculus, UniProt Q60612); settings: read-out: A1AR Ki; mouse (m); ref [17],[23],[30],[32]-[34],[36],[43]-[45]; cited from earlier work
T3 sequence (Q60612 1-326): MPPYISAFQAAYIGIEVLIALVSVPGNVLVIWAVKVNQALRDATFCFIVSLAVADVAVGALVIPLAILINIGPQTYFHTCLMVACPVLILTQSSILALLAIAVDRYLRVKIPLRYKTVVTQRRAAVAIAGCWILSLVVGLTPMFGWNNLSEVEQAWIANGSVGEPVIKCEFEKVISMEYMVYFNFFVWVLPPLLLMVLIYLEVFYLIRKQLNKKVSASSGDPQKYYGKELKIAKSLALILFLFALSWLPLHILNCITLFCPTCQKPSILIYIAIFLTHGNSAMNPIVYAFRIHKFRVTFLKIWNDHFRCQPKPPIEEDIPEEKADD

DAT = DAT (Homo sapiens, UniProt Q01959); assay: PDSP off-target binding, DAT; settings: read-out: Off-target Ki, DAT
5HT2C = 5HT2C (Homo sapiens, UniProt P28335); assay: PDSP off-target binding, 5HT2C; settings: read-out: Off-target Ki, 5HT2C
mA2AAR = mA2AAR (Mus musculus, UniProt Q60613); settings: mouse (m); at 10 μM; ref [30],[33],[34],[43]; cited from earlier work

hA2AAR, sequence (P29274 whole entry): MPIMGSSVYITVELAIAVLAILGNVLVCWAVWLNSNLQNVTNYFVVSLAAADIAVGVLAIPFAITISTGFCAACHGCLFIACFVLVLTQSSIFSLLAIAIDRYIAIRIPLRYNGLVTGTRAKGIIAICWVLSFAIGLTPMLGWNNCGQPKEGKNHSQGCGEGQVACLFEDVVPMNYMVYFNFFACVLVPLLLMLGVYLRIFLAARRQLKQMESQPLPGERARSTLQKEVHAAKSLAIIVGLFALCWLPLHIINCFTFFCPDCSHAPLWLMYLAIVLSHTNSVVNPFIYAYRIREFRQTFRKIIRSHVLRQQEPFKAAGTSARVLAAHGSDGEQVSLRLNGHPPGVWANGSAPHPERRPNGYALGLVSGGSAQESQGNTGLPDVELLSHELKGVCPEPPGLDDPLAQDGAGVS
hA3AR, sequence (P0DMS8 whole entry): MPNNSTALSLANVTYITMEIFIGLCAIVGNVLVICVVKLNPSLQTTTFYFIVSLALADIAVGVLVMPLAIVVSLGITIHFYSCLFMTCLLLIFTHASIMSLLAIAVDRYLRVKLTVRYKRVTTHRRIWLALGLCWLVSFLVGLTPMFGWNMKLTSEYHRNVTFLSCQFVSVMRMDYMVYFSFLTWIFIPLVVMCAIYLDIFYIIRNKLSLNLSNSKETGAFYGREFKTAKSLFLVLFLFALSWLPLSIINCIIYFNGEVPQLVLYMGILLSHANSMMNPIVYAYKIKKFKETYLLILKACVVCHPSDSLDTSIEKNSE
1A2 CYP isozyme, sequence (P05177 whole entry): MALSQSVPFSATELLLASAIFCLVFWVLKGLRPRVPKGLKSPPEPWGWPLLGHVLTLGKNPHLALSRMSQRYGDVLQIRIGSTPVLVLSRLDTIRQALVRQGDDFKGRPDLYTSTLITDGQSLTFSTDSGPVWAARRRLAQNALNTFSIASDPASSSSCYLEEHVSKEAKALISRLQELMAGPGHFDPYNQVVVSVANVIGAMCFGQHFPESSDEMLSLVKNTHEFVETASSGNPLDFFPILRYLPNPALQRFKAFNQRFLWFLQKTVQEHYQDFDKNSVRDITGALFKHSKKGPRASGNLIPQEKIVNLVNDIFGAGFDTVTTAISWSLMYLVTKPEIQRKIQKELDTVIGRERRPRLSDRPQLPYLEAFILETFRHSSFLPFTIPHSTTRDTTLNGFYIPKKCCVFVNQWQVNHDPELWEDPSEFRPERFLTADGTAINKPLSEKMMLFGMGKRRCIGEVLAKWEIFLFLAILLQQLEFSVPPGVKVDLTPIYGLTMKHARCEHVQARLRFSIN
hCYP P450 2C9, sequence (P11712 whole entry): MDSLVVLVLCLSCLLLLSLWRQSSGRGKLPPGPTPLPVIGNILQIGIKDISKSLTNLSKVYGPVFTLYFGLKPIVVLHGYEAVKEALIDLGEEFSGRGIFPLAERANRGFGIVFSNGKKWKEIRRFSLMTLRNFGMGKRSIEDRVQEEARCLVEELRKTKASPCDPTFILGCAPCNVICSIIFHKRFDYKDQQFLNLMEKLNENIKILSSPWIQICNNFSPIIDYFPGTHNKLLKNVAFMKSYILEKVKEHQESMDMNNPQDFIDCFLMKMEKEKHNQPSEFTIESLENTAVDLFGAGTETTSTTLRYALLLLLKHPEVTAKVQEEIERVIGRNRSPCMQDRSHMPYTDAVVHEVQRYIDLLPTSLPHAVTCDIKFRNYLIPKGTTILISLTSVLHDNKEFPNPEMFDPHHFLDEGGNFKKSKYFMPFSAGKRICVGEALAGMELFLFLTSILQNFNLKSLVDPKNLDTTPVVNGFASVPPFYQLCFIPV
hCYP P450 2D6, sequence (P10635 whole entry): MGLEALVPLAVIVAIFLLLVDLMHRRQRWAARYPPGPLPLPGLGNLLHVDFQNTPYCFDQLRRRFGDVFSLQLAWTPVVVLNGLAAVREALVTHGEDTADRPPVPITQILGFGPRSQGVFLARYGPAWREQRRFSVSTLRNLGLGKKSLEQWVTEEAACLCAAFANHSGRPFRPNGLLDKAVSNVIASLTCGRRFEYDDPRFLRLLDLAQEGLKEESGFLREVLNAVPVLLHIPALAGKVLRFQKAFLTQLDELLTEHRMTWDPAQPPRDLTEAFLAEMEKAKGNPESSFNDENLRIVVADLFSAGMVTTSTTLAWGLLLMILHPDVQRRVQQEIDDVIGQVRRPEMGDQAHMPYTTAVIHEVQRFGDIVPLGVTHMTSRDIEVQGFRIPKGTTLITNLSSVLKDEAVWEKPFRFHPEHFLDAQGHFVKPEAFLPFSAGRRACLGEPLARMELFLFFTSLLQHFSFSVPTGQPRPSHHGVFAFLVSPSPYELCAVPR
mA3AR, sequence (Q61618 whole entry): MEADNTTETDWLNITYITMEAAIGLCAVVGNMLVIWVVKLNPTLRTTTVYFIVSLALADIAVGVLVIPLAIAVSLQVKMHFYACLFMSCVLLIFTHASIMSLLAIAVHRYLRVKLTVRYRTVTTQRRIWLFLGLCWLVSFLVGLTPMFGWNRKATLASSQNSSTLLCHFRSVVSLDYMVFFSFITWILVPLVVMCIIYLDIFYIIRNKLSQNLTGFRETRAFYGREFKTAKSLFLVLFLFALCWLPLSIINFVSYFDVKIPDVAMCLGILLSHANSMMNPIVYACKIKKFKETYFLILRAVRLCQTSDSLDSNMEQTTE
5HT2C, sequence (P28335 33-458): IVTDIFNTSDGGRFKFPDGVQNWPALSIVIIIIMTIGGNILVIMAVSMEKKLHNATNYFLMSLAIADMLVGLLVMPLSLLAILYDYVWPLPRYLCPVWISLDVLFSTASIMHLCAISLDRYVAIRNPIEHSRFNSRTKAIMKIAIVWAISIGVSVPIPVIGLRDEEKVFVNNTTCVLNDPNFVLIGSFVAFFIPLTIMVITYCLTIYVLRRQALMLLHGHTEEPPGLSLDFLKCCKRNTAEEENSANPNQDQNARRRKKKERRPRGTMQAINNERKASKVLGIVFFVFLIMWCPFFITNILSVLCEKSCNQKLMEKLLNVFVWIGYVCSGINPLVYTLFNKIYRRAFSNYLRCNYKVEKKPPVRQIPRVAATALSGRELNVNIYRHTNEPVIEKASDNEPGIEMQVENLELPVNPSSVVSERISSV
2C19 CYP isozyme, sequence (P33261 whole entry): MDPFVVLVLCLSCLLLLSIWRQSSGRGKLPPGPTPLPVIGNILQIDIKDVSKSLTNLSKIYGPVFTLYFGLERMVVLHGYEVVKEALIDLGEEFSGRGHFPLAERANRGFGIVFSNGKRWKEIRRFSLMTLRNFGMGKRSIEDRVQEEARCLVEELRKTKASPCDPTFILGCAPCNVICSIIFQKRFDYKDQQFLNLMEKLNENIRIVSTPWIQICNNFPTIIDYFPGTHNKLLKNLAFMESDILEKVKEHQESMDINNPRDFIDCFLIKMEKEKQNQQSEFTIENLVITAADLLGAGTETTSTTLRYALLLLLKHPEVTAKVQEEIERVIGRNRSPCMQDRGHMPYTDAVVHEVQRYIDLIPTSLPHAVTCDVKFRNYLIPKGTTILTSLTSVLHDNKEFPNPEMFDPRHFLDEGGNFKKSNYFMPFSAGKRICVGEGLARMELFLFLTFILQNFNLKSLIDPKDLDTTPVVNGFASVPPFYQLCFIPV
σ1, sequence (Q99720 whole entry): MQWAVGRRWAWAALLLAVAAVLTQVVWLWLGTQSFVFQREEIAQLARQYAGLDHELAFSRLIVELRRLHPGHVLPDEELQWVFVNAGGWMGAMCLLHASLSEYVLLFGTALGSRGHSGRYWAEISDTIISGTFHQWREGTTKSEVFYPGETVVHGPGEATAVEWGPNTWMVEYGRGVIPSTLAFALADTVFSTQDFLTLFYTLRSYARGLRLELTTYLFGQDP
DAT, sequence (Q01959 whole entry): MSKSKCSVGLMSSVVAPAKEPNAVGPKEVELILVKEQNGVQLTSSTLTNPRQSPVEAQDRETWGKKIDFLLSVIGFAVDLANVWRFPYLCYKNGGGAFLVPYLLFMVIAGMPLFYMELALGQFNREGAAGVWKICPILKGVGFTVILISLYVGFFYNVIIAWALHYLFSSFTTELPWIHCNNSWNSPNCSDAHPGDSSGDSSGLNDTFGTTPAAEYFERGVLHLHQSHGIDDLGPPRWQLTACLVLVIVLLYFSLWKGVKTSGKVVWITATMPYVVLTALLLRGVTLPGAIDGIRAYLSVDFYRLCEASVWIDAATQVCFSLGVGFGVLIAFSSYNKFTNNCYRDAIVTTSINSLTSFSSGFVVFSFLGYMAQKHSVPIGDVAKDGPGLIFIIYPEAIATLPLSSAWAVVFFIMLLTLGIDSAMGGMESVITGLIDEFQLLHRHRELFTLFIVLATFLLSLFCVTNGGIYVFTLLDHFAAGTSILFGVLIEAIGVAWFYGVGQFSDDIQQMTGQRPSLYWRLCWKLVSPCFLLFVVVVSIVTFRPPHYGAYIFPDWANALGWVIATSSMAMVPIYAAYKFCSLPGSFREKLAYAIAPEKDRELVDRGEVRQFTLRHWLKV
hCYP P450 3A4, sequence (P08684 whole entry): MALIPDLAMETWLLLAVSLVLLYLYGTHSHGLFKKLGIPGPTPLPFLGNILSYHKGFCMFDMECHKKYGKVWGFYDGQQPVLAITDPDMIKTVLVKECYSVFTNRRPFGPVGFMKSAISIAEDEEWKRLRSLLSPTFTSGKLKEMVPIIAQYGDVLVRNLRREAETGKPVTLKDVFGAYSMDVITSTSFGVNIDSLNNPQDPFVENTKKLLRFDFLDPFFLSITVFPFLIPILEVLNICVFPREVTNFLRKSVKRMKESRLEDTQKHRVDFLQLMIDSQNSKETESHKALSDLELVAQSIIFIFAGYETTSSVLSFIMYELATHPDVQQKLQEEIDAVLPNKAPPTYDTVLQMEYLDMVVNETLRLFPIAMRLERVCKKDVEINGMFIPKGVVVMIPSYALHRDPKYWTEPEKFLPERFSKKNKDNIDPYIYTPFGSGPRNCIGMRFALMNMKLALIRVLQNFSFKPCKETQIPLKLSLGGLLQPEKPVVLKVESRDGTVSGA

## OC[C@H]1O[C@@H](n2cnc3c(NC(C4CCC4)C4CCC4)ncnc32)[C@H](O)C1O (stereo in doubt) [Compound 9, (2R,3R,4R,5R)-2-(6-((Dicyclobutylmethyl)amino)-9H-purin-9-yl)-5-(hydroxymethyl)tetrahydrofuran-3,4-diol]
CACO-2 cells
  Permeability in CACO-2 cells: high permeability
A1AR, A3AR [1]; A1AR KO, A3AR KO, double KO mice
  Receptor dependence of hypothermia: dependent on A1AR, without a contribution from A3AR
A1AR, A3AR [1]; WT vs AR-KO mice (Figure 2)
  ARs causing hypothermia: A1AR selective (Figure 2)
2C19 CYP isozyme
  Inhibition of 2C19 CYP isozyme: no inhibition
hCYP P450 3A4
  Inhibition of 3A4 CYP isozyme: no inhibition
Mouse liver microsomes
  Clearance in liver microsomes: medium clearance
mice; 1.67 μg/mouse icv. (= […])
  Duration of hypothermia after icv. administration: ~ 10 h
  Effect on Tb after icv. administration: deep hypothermia
mice; 5 μg injected icv. (equivalent to […])
  Tb reached after icv. administration: ~ 24 °C
hA2BAR
  Ki: 8620 nM
[2]
  Stability in simulated gastric fluid: completely stable
[3]
  Stability in simulated intestinal fluid: completely stable
wild-type C57BL/6J mice [4]; 3 mg/kg ip., average from dosing to 60 min, mean ±SD
  Tb: 33.0±0.7 °C
wild-type C57BL/6J mice [4]; ip., up to 3 or 10 mg/kg
  Effect on Tb in WT mice: produced hypothermia and hypoactivity
1A2 CYP isozyme
  Inhibition of 1A2 CYP isozyme: no inhibition
Rat liver microsomes
  Clearance in liver microsomes: medium clearance
[5]
  Stability in plasma: completely stable
hCYP P450 2C9
  Inhibition of 2C9 CYP isozyme: weak inhibition
Human liver microsomes; human
  Clearance in liver microsomes: medium clearance
[6]
  Stability in plasma: completely stable
[7]
  maximal concentration, molar: 310 nM
HEP-G2 hepatocytes
  Toxicity in HEP-G2 hepatocytes: nontoxic
Stability in rat plasma
  Stability in plasma: completely stable
hCYP P450 2D6
  Inhibition of 2D6 CYP isozyme: no inhibition

## CNC(=O)[C@]12C[C@@H]1[C@@H](n1cnc3c(NC4CCCC4)nc(Cl)nc31)[C@H](O)[C@@H]2O [Compound 6]
σ1
  Ki: 1550 nM

## O[C@@H]1[C@H](O)[C@@H]2C[C@@H]2[C@H]1n1cnc2c(NC(C3CC3)C3CC3)nc(Cl)nc21 [Compound 7]
Anesthetized rat
  Effects on heart rate and blood pressure: modest effects on heart rate (slow onset of reduction) and blood pressure (a modest, transient rise)
GPCR assays
  Broad GPCR screening result: not promiscuous
403 kinases
  Hits in kinase screen: only two weak hits
[3]
  Stability in simulated intestinal fluid: stable
Female rhesus monkeys
  Adverse reaction after oral dosing: no adverse reaction
Human liver microsomes
  Stability in human liver microsomes: stable
mouse
  Lethality in the mouse: non-lethal
[8]
  Clinical observations: no clinical observations
A1AR, A3AR [9]
  ARs causing hypothermia: A3AR >> A1AR[30]
wild-type C57BL/6J mice [10]
  Tb: 33.4±1.7 °C

## OC[C@H]1O[C@@H](n2cnc3c(NC(C4CC4)C4CC4)ncnc32)[C@H](O)[C@@H]1O [Compound 8]
hA3AR
  Ki: 41.3 ± 5.3 nM
hA1AR
  Ki: 0.85 ± 0.27 nM
rA2AAR
  Ki: 1370 nM
hA2AAR
  Ki: 1470 ± 380 nM
[11]
  Off-target, receptor: interactions found: none

## Nc1nc(Cl)nc2c1ncn2[C@H]1[C@H](O)[C@H](O)[C@]2(CO)C[C@H]12 [Compound 21]
[11]
  Off-target, receptor: interactions found: none
rA1AR
  Ki: 273 nM

## OCC12CC1C(n1cnc3c(NC(C4CC4)C4CC4)nc(Cl)nc31)C(O)C2O (centres unmarked) [Compound 23]
mA3AR
  Ki: 1030 nM
hA3AR
  Ki: 1600 ± 210 nM
hA1AR
  Ki: 39 ± 17 nM
mA1AR
  Ki: 0.71 nM
DAT
  Ki: 4750 nM
hA2AAR
  Ki: 2200 nM
5HT2C
  Ki: 1850 nM
mA2AAR
  A2AAR % inhibition: 41±9%
